# Measurements taken from patent EP4803511A1, “SMALL MOLECULE COMPOUND HAVING SULFONIC ACID OR SULFINIC ACID LACTONE STRUCTURE, COMPOSITION AND USE THEREOF” (Hangzhou Phecdamed Co., Ltd., priority 2023, dated 2025).
# Experiments:
# [1] = Permeability into skin using a Franz diffusion cell; assay type: in vitro ADME, Bama miniature pig; conditions: for Concentration of the compound to be test in the skin, Mean / Concentration of the compound to be test in the skin, Skin-1 / Concentration of the compound to be test in the skin, Skin-2 / Concentration of the compound to be test in the skin, Skin-3: 0.1 mg/mL solution, 32 °C
# Protocol: Experimental materials: skin from the back of a one-month-old Bama miniature pig, 0.8-1.0 mm thick; 0.1 mg/mL solution of the compound to be test, dissolvent: 50 mM Sodium Phosphate Buffer (PB) buffer solution containing 20% ethanol.
# Experimental procedure: • 1. 400 uL solution of the compound to be test was pipetted into the feed cell, repeated three times. • 2. About 7600 uL of 50 mM PB buffer solution was added to the corresponding receiving cell. • 3. The compound to be test was permeated at 32 °C for 2 hrs and 6 hrs. • 4. At 2 hrs and 6 hrs, the skin was washed with 50 mM PB buffer solution containing 20% ethanol, the skin from the permeation area was removed and homogenized, and acetonitrile solution containing internal standard was added. • 5. Centrifugation was performed, 100 µL of the supernatant was taken and added into 100 µL of purified water, after mixing uniformly, quantitative analysis was performed by LC-MS/MS.
# [2] = tested on: Cu/Zn-sod; test: Zebrafish oxidative aging model (menadione), Cu/Zn-sod gene expression by RT-qPCR; assay type: in vivo; conditions: I-8 at 2.5, 7.5, and 22.2 µg/mL, 22 hrs, 4 µM menadione; compared to the modeling group, statistical significance
# Protocol: Experimental animal: Healthy wild-type AB strain zebrafish at 48 hpf (hours post-fertilization)
# Healthy AB strain zebrafish were taken as experimental animal. A zebrafish oxidative aging model was constructed using chemical mutagenesis with 4 µM menadione as the modeling drug. Fucoxanthin was used as a positive control compound. After treating the zebrafish oxidative aging model with different concentrations of I-8 for 22 hrs, changes in the reactive oxygen species (ROS) content, β-galactosidase activity, and the expression of three antioxidant and anti-aging related genes (Cu/Zn-sod, Mn-sod, and ampk) were respectively detected and statistically analyzed.
# During the experiment, the modeling drug, positive compound, and I-8 were dispersed together in the culture water of zebrafish. […] Cell ROX™ Deep Red fluorescent probes and β-galactosidase staining kits were used to specifically label ROS and β-galactosidase in the fish, respectively, and the staining intensity was quantified using Image-Pro Plus software. After extracting RNA from the whole fish, the expression changes of three genes (Cu/Zn-sod, Mn-sod, and ampk) in the fish were detected at the mRNA level using Quantitative Real-time PCR (RT-qPCR). The data were statistically analyzed using GraphPad software.
# [3] = Kinetic solubility in aqueous buffer; assay type: physicochemical; conditions: 2 hrs at 25 °C
# Protocol: Experimental Methods: 30 µL of the 10 mM DMSO stock solution of the compound to be test was placed in a solubility sample plate (duplicate), 970 µL of aqueous buffer solution was added to the plate, and the plate was sealed with a sealing membrane and shaken at 1100 rpm for 2 hrs at 25 °C. The sample in the solubility plate was transferred to a filter plate, and filtered to obtain a filtrate. 10 µL of the filtrate was transferred into 980 µL of methanol along with 10 µL of DMSO, and then the solution was diluted 10-fold with methanol:water (1:1), and the resulting sample was analyzed by LC-MS/MS to obtain Area (filtered). Separately, 10 mM of the DMSO stock solution of the compound to be test was diluted to 300 µM with DMSO. 10 µL of this 300 µM DMSO solution and 10 µL of aqueous buffer solution were added into 980 µL of methanol, and then diluted 10-fold with methanol:water (1:1), and the resulting sample was analyzed by LC-MS/MS to obtain Area (std). The kinetic solubility was calculated according to the following formula: Solubility(μM) = (Areafiltered × DFfiltered)/(Areastd × DFstd) × [std] × DFstd [formula] wherein DF is the dilution factor.
# [4] = tested on: HaCaT cells; test: ROS content / ROS scavenging rate in HaCaT after UVB radiation (DCFH-DA); assay type: cell-based, human; conditions: for ROS scavenging rate: HaCaT cells after UVB radiation
# Text: Oxidative reactions such as respiration and metabolism in organisms generate reactive free radicals. Under normal bodily conditions, free radicals have a stable scavenging system, so that the free radical content of the body is kept at a relatively low concentration. Oxidative stress (OS) refers to an imbalance between oxidation and antioxidation in the body due to endogenous and/or exogenous stimuli, resulting in excessive free radical production. Excessive free radicals produce a series of negative effects in the body, including oxidative damage to biomolecules and further causing cell death and tissue damage, etc. In organisms, almost all ROS, except for trace amounts utilized by the body, should be promptly scavenged. Medium Wave Erythema Effect Ultraviolet (UVB) (280-319 nm) radiation damage is the most important factor leading to photoaging of the skin, primarily damaging keratinocytes (HaCaT), specifically manifested as the accumulation of photoproducts, increased ROS, and exacerbated oxidative damage, etc. Over long periods of evolution, organisms have developed a complete antioxidant system, maintaining a dynamic balance between the production and elimination of free radicals. This is an adaptive mechanism of organisms, and the main members include antioxidant enzymes, antioxidants, and proteins that separate transition metals, all of which can specifically limit oxidative damage to the body. Therefore, the antioxidant efficacy of a test compound can be evaluated by detecting the ROS scavenging rate in keratinocytes after UVB radiation.
# • 1) Cell inoculation: HaCaT cells were inoculated into a 96-well plate at 2 × 10^4/well, cultured in an incubator (37 °C, 5% CO2) for 12 hrs, and a control group (120 mJ/cm^2 + vehicle control), a low concentration group (120 mJ/cm^2 + low concentration compound), a medium concentration group (120 mJ/cm^2 + medium concentration compound), and a high concentration group (120 mJ/cm^2 + high concentration compound) were respectively provided. • 2) UVB modeling: The HaCaT cells were washed 3 times with D'Hanks before UVB radiation, 50 µL of D'Hanks was added into the wells, to make the cells to be immersed, and the control group was coated with tinfoil and placed in the dark. For the test groups, UVB modeling was performed on the group requiring radiation, respectively. • 3) Administration: DMEM medium containing different concentrations of compound were added to each test group for continued culture for 24 hrs. • 4) Transferring the ROS fluorescent probe: DCFH-DA was Diluted to a final concentration of 10 µmol/L using PBS at a dilution ratio of 1:1000. The culture medium in all wells except the bare cell wells was discarded. After washing three times with PBS, 200 µL of DCFH-DA working solution was added to each well, then incubated in a CO2 incubator for 30 min, and after incubation, the cells in each well were washed with PBS for 3 times. • 5) Fluorescence analysis. The 96-well plate to be tested was placed on the detection stage of the fluorescence microplate reader, with the […] set to 525 nm, the excitation light wavelength set to 488 nm, and the reading was analyzed.
# ROS scavenging rate (%) = (S(Modelcontrolgroup)−S(Samplegroup))/(S(Modelcontrolgroup)) × 100% [formula] wherein S is fluorescence intensity.
smiles,measurement,setting,value
O=S1(=O)Oc2cc(O)ccc2-c2ccc(O)cc21 [Compound I-8],"Concentration of the compound to be test in the skin, Mean",[1]; Time 2 h,7167 ng/g
same,"Concentration of the compound to be test in the skin, Skin-1",[1]; Time 2 h,7450 ng/g
same,"Concentration of the compound to be test in the skin, Skin-2",[1]; Time 2 h,6600 ng/g
same,"Concentration of the compound to be test in the skin, Skin-3",[1]; Time 2 h,7450 ng/g
same,"Concentration of the compound to be test in the skin, Mean",[1]; Time 6 h,11417 ng/g
same,"Concentration of the compound to be test in the skin, Skin-1",[1]; Time 6 h,13650 ng/g
same,"Concentration of the compound to be test in the skin, Skin-2",[1]; Time 6 h,10450 ng/g
same,"Concentration of the compound to be test in the skin, Skin-3",[1]; Time 6 h,10150 ng/g
same,permeation amount,[1]; within 6 hours,10 µg/g
same,expression of Cu/Zn-sod gene,[2],upregulated
same,solubility kinetic at 2 h,[3],> 300 µM
same,ROS content in HaCaT after UVB radiation,"[4]; HaCaT, UVB 120 mJ/cm^2, 24 hrs, low, medium, high concentration",scavenging ROS in a dose-dependent manner
same,ROS scavenging rate,[4]; content 0.00015625%,12%
same,ROS scavenging rate,[4]; content 0.000625%,22%
same,ROS scavenging rate,[4]; content 0.0025%,26%
